Assay results: patent US5079243A, “Benzazepines” (Novo Nordisk A/S, priority 1989, dated 1992)

Test system: stereotyped gnawing behaviour in mice induced by methylphenidate
Experiment: methylphenidate induced gnawing test in mice
Assay type: in vivo
Conditions: Mus musculus

COCOc1cc2c(cc1Cl)CCN(C)CC2c1cccc2ccoc12 (single isomer, unassigned; (+)) [Example 1, (+)-5-(7-benzofuranyl)-8-chloro-7-methoxymethyloxy-3-methyl-2,3,4,5-tetrahydro-1H-3-benzazepine]
ED50: 2 mg/kg

COCOc1cc2c(cc1Cl)CCN(C)CC2c1cccc2c1OCC2 (single isomer, unassigned; (+)) [Example 2, (+)-8-chloro-5-(2,3-dihydro-benzofuran-7-yl)-7-methoxy-methyloxy-3-methyl-2,3,4,5-tetrahydro-1H-3-benzazepine]
ED50: 5.4 mg/kg
